Assays:
Assay in all cases: relative viability (nuclei count vs DMSO), 5 days (fraction); higher = more cells survive
[1] = test system: NCI-H1651
In short: (§1)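 Lung cancer cell lines in 1536-well plates were dosed by pin tool the day after seeding, either with one drug alone or with a fixed anchor-drug dose plus five library-drug doses (not always all listed) in √10 steps. After 5 days, cells were fixed and their nuclei stained in one step (final 0.05% Triton X-100, 1% formaldehyde, 1 ug/ml Hoechst), then counted on 4× images. Relative viability is the nuclei count in treated wells divided by that in vehicle wells. Values are medians of duplicate plates.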

[2] = test system: LOU-NH91
In short: as §1

[3] = test system: NCI-H1395
In short: as §1

[4] = test system: NCI-H1437
In short: as §1

[5] = test system: NCI-H1734
In short: as §1

[6] = test system: SK-LU-1
In short: as §1

[7] = test system: LCLC-103H
In short: as §1

[8] = test system: NCI-H2405
In short: as §1

[9] = test system: NCI-H23
In short: as §1

[10] = test system: RERF-LC-KJ
In short: as §1

[11] = test system: NCI-H1792
In short: as §1

[12] = test system: NCI-H1915
In short: as §1

[13] = test system: NCI-H1793
In short: as §1

[14] = test system: NCI-H1975
In short: as §1

[15] = test system: EMC-BAC-2
In short: as §1

[16] = test system: UMC-11
In short: as §1

[17] = test system: HCC-78
In short: as §1

[18] = test system: NCI-H2023
In short: as §1

[19] = test system: EPLC-272H
In short: as §1

[20] = test system: NCI-H661
In short: as §1

[21] = test system: 201T
In short: as §1

[22] = test system: NCI-H647
In short: as §1

Cc1cnc(-c2cnc(NCCNc3ccc(C#N)cn3)nc2-c2ccc(Cl)cc2Cl)[nH]1 + Nc1nc2[nH]cc(CCc3ccc(C(=O)N[C@@H](CCC(=O)O)C(=O)O)cc3)c2c(=O)[nH]1 [Pemetrexed] (partner 0.2 µM)
relative viability ([1]; first compound 0.08 µM): 0.574
relative viability ([1]; first compound 0.253 µM): 0.493
relative viability ([1]; first compound 0.8 µM): 0.528
relative viability ([1]; first compound 2.53 µM): 0.537
relative viability ([2]; first compound 0.08 µM): 0.376
relative viability ([2]; first compound 0.253 µM): 0.383
relative viability ([2]; first compound 0.8 µM): 0.399
relative viability ([2]; first compound 2.53 µM): 0.349
relative viability ([3]; first compound 0.08 µM): 0.958
relative viability ([3]; first compound 0.253 µM): 0.823
relative viability ([3]; first compound 0.8 µM): 0.826
relative viability ([3]; first compound 2.53 µM): 0.756
relative viability ([4]; first compound 0.08 µM): 0.3
relative viability ([4]; first compound 0.253 µM): 0.328
relative viability ([4]; first compound 0.8 µM): 0.268
relative viability ([4]; first compound 2.53 µM): 0.269
relative viability ([5]; first compound 0.08 µM): 0.445
relative viability ([5]; first compound 0.253 µM): 0.371
relative viability ([5]; first compound 0.8 µM): 0.395
relative viability ([5]; first compound 2.53 µM): 0.323
relative viability ([6]; first compound 0.08 µM): 0.966
relative viability ([6]; first compound 0.253 µM): 0.97
relative viability ([6]; first compound 0.8 µM): 0.975
relative viability ([6]; first compound 2.53 µM): 0.823
relative viability ([7]; first compound 0.08 µM): 0.49
relative viability ([7]; first compound 0.253 µM): 0.43
relative viability ([7]; first compound 0.8 µM): 0.453
relative viability ([7]; first compound 2.53 µM): 0.418
relative viability ([8]; first compound 0.08 µM): 1.09
relative viability ([8]; first compound 0.253 µM): 1.06
relative viability ([8]; first compound 0.8 µM): 1.04
relative viability ([8]; first compound 2.53 µM): 0.468
relative viability ([9]; first compound 0.08 µM): 0.667
relative viability ([9]; first compound 0.253 µM): 0.634
relative viability ([9]; first compound 0.8 µM): 0.486
relative viability ([9]; first compound 2.53 µM): 0.438
relative viability ([10]; first compound 0.08 µM): 0.496
relative viability ([10]; first compound 0.253 µM): 0.458
relative viability ([10]; first compound 0.8 µM): 0.4
relative viability ([10]; first compound 2.53 µM): 0.424
relative viability ([11]; first compound 0.08 µM): 0.946
relative viability ([11]; first compound 0.253 µM): 0.728
relative viability ([11]; first compound 0.8 µM): 0.775
relative viability ([11]; first compound 2.53 µM): 0.724
relative viability ([12]; first compound 0.08 µM): 0.49
relative viability ([12]; first compound 0.8 µM): 0.438
relative viability ([12]; first compound 2.53 µM): 0.398
relative viability ([13]; first compound 0.08 µM): 1.04
relative viability ([13]; first compound 0.253 µM): 0.839
relative viability ([13]; first compound 0.8 µM): 0.794
relative viability ([13]; first compound 2.53 µM): 1.14
relative viability ([14]; first compound 0.08 µM): 0.289
relative viability ([14]; first compound 0.253 µM): 0.285
relative viability ([14]; first compound 0.8 µM): 0.287
relative viability ([14]; first compound 2.53 µM): 0.242
relative viability ([15]; first compound 0.08 µM): 0.419
relative viability ([15]; first compound 0.253 µM): 0.43
relative viability ([15]; first compound 0.8 µM): 0.393
relative viability ([15]; first compound 2.53 µM): 0.368
relative viability ([16]; first compound 0.08 µM): 0.867
relative viability ([16]; first compound 0.253 µM): 0.772
relative viability ([16]; first compound 0.8 µM): 0.822
relative viability ([16]; first compound 2.53 µM): 0.735
relative viability ([17]; first compound 0.08 µM): 0.893
relative viability ([17]; first compound 0.253 µM): 0.839
relative viability ([17]; first compound 0.8 µM): 0.897
relative viability ([17]; first compound 2.53 µM): 0.938
relative viability ([18]; first compound 0.08 µM): 0.283
relative viability ([18]; first compound 0.253 µM): 0.229
relative viability ([18]; first compound 0.8 µM): 0.199
relative viability ([18]; first compound 2.53 µM): 0.261
relative viability ([19]; first compound 0.08 µM): 0.388
relative viability ([19]; first compound 0.253 µM): 0.293
relative viability ([19]; first compound 0.8 µM): 0.344
relative viability ([19]; first compound 2.53 µM): 0.276
relative viability ([20]; first compound 0.08 µM): 0.876
relative viability ([20]; first compound 0.253 µM): 0.887
relative viability ([20]; first compound 0.8 µM): 0.738
relative viability ([20]; first compound 2.53 µM): 0.649
relative viability ([21]; first compound 0.08 µM): 0.316
relative viability ([21]; first compound 0.8 µM): 0.345
relative viability ([21]; first compound 2.53 µM): 0.301
relative viability ([22]; first compound 0.08 µM): 0.18
relative viability ([22]; first compound 0.253 µM): 0.148
relative viability ([22]; first compound 0.8 µM): 0.145
relative viability ([22]; first compound 2.53 µM): 0.114
